{"source": "patent US5134150A", "about": "“Inhibition of the 5-lipoxygenase pathway” (priority 1989, dated 1992)", "key": {"[1]": {"system": "Arachidonic Acid-Induced Cellular Infiltration into the Rat Air Pouch", "test": "Arachidonic acid-induced air pouch inflammation", "assay_type": "in vivo, rat (male Lewis)", "settings": "for Cell infiltration into arachidonic acid air pouch, result in words: rat, in vivo", "text": "(§1) In the following Examples where mice were used, they were male Balb/c mice (20-28 g), and where rats were used, they were male Lewis rats (180-210 g). All mice and rats were obtained from Charles River Breeding Laboratories, Kingston, N.Y. Within a single experiment, mice and rats were sex and age matched.\n(§2) The compounds of Formula (I) were used either as the free base or in the appropriate salt form. Levamisole was used as the hydrochloride salt. The compounds were homogenized in 0.5% tragacanth. Compounds were administered by gavage at the indicated dose in a final volume of 10 ml/kg. Nordihydroguaiaretic acid (NDGA) was solubilized in dimethylacetamide and diluted with olive oil for subcutaneous administration.\n(§3) Rats were shaved on the dorsal flank, and then injected subcutaneously one day later with 20 ml of air to form a defined pouch, by the method of Sedgwick et al., J. Pathology, 141, 483-495 (1983). The air pouch was reinflated as necessary over the next 6 days. To assay anti-inflammatory activity, animals were treated orally with test compound or vehicle (10 ml/kg) one hour before injection of 2.0 ml of a 2.0% carrageenan suspension containing […] penicillin and 100 µg/ml streptomycin into the air pouch. In other experiments, 5 ml of 0.1% arachidonic acid in 0.2M bicarbonate buffer was injected two hours after drug treatment. Animals were sacrificed using CO2 three hours after instillation of irritant. The exudate was then aspirated from the pouch and neutrophil count and differential cell count were measured."}, "[2]": {"system": "Carrageenan-Induced Cellular Infiltration into the Rat Air Pouch", "test": "Carrageenan-induced air pouch inflammation", "assay_type": "in vivo, rat (male Lewis)", "settings": "for Cell infiltration into carrageenan air pouch, result in words: rat, in vivo", "text": "as §1, §2, §3"}, "[3]": {"system": "5-lipoxygenase and LTA4 synthetase", "test": "Di-HETE / LTB4 production by high speed supernatant of RBL-1 cells", "assay_type": "biochemical", "procedure": "For in vitro experiments, compounds were dissolved at appropriate concentrations in ethanol or DMSO (dimethylsulfoxide) (final concentration≤1.0%) and then diluted to final concentrations using the buffers indicated in the text.\nThe activities of these enzymes in extracts of RBL-1 cells were assayed using the method of Jakschik and Lee, Nature, 287, 51-52 (1980). RBL-1 cells were obtained from the American Type Culture Collection (#CRL 1378) and were grown at 37° C. (5% CO2 in air) in spinner culture in MEM supplemented with 10% heat inactivated fetal calf serum. Harvested cells were washed with 50 mM sodium phosphate buffer, pH 7.0, containing 1 mM EDTA and 0.1% gelatin, resuspended in fresh buffer (5×10^7 cells/ml) and disrupted by nitrogen cavitation using the Parr bomb at 750 psi for 10 min. The broken cell extract was then centrifuged at 10,000× g for 20 minutes (min) and the supernatant centrifuged at 100,000 xIg for 60 min. Aliquots (0.25 mls) of the supernatant were preincubated with or without drugs for 10 min, after which 10 μl CaCl2 (50 mM) was added and the reaction was initiated with 2.5 μl of 2.5 mM arachidonic acid-1-^14 C (final concentration was 25 μM; specific activity 20,000 dpm/nmole). After incubation for 3 min at 37° C., the reaction was terminated by addition of 2 volumes (0.5 ml) ice cold acetone and the sample was allowed to deproteinize on ice for 10 min prior to centrifugation at 1,000× g for 10 min. The deproteinized supernatant was adjusted to pH 3.5 with 2N formic acid and extracted with 2 volumes of ice cold ethyl acetate. The extracted samples were dried under argon, redissolved in ethyl acetate and applied to Whatman LK5D thin layer chromatography (TLC) plates which were developed using the A-9 solvent system [organic phase of ethyl acetate: 2,2,5-trimethylpentane:acetic acid: water (110:50:20:10)] described by Hamberg and Samuelsson, J. Biol. Chem., 241, 257-263 (1966). Arachidonic acid, 5-HETE, LTB4 and PGD2 were quantified with a Berthold LB 2832 autoscanner.\nThe 5-lipoxygenase and LTA4 synthetase activities were further studied under the following conditions. An additional centrifugation of the RBL-1 supernatant was run at 100,000× g for 60 min, to remove the particulate cyclooxygenase activity. Sample incubation was done under conditions similar to those described above, i.e., 2 mM CaCl2 and […] arachidonic acid-1-^14 C, however, with an incubation time of 5 min at 5° C. Under these conditions, only the 5-lipoxygenase pathway metabolites were detectable. The 5-HETE and di-HETEs were formed at a linear rate, and substantial amounts of the arachidonic acid-1-^14 C substrate were utilized."}, "[4]": {"system": "Arachidonic Acid-Induced Rat Paw Edema", "test": "Arachidonic acid-induced rat paw swelling", "assay_type": "in vivo, rat (male Lewis)", "text": "as §1\nAuranofin, phenidone, indomethacin, naproxen, and ibuprofen were each used as the free base. The compounds of Formula (I) were used either as the free base or in the appropriate salt form. Levamisole was used as the hydrochloride salt. The compounds were homogenized in 0.5% tragacanth. Compounds were administered by gavage at the indicated dose in a final volume of 10 ml/kg. Nordihydroguaiaretic acid (NDGA) was solubilized in dimethylacetamide and diluted with olive oil for subcutaneous administration.\nAfter determining pretreatment paw volumes by plethysmography by the method of Webb and Griswold, J. Pharmacol. Methods, 12, 149-153 (1984), rats were given test compound or vehicle one hour prior to the subplantar injection of 0.1 ml of 1 mg/ml arachidonic acid. Paw volumes were then remeasured and compared to pretreatment values and the increase in paw volume was expressed as mean values ± S.D."}, "[5]": {"system": "Infiltration of Polymorphonuclear Leukocytes into Sites of Carrageenan-Induced Inflammation", "test": "Mouse carrageenan peritonitis (PMN infiltration)", "assay_type": "in vivo, mouse (male Balb/c)", "settings": "for PMN infiltration, result in words: carrageenan peritonitis, mice"}, "[6]": {"settings": "5 mg/kg, 2 hours post arachidonic acid"}}, "note": "“Also recorded” adds a separate entry of the source."}
{"smiles": "Fc1ccc(-c2nc3n(c2-c2ccncc2)CCS3)cc1", "note": "[Compound 1]", "values": [{"measurement": "Cellular Infiltrate MN", "setting": "[1]; 100 mg/kg", "result": "1.5 ± 1.1", "unit": "Total × 10^-6"}, {"measurement": "Cellular Infiltrate PMN", "setting": "[1]; 100 mg/kg", "result": "1.2 ± 0.7", "unit": "Total × 10^-6"}, {"measurement": "Exudate Volume", "setting": "[1]; 100 mg/kg", "result": "2.6 ± 0.8", "unit": "mL"}, {"measurement": "Cell infiltration into arachidonic acid air pouch, result in words", "setting": "[1]", "result": "significantly reduced PMN and mononuclear cell infiltration"}, {"measurement": "Cellular Infiltrate MN", "setting": "[2]; 100 mg/kg", "result": "5.5 ± 3.8", "unit": "Total × 10^-6"}, {"measurement": "Cellular Infiltrate PMN", "setting": "[2]; 100 mg/kg", "result": "2.6 ± 1.3", "unit": "Total × 10^-6"}, {"measurement": "Exudate Volume", "setting": "[2]; 100 mg/kg", "result": "1.0 ± 0.9", "unit": "mL"}, {"measurement": "Cell infiltration into carrageenan air pouch, result in words", "setting": "[2]", "result": "significant inhibition of polymorphonuclear leukocyte infiltration"}, {"measurement": "Di-HETE", "setting": "[3]; 1 μM", "result": "1.56 ± 0.06", "unit": "nM/ml"}, {"measurement": "Di-HETE", "setting": "[3]; 3.3 μM", "result": "1.34 ± 0.12", "unit": "nM/ml"}, {"measurement": "Di-HETE", "setting": "[3]; 10 μM", "result": "0.88 ± 0.21", "unit": "nM/ml"}, {"measurement": "Di-HETE", "setting": "[3]; 33 μM", "result": "0.40 ± 0.08", "unit": "nM/ml"}, {"measurement": "Di-HETE", "setting": "[3]; 100 μM", "result": "0.03 ± 0.04", "unit": "nM/ml"}, {"measurement": "IC50", "setting": "[3]; soluble extract of RBL-1 cells containing only lipoxygenase activity, read-out: IC50, eicosanoid formation (LTB4 production)", "result": 7.5, "unit": "µM"}, {"measurement": "Change in Paw Volume", "setting": "[4]; 100 mg/kg, 2 hours post arachidonic acid", "result": "0.06 ± 0.05", "unit": "mL"}, {"measurement": "Rat paw inflammatory response, result in words", "setting": "[4]; rat, in vivo", "result": "inhibited significantly"}, {"measurement": "PMN infiltration, result in words", "setting": "[5]", "result": "reduced dramatically"}]}
{"smiles": "COc1ccc2c(c1)c(CC(=O)O)c(C)n2C(=O)c1ccc(Cl)cc1", "note": "[Indomethacin]", "values": [{"measurement": "Cellular Infiltrate MN", "setting": "[1]; 5 mg/kg", "result": "7.0 ± 6.4", "unit": "Total × 10^-6"}, {"measurement": "Cellular Infiltrate PMN", "setting": "[1]; 5 mg/kg", "result": "5.0 ± 3.8", "unit": "Total × 10^-6"}, {"measurement": "Exudate Volume", "setting": "[1]; 5 mg/kg", "result": "2.5 ± 0.8", "unit": "mL"}, {"measurement": "Cell infiltration into arachidonic acid air pouch, result in words", "setting": "[1]", "result": "did not reduce inflammation or cell infiltration; also recorded: no significant effect on cell infiltration"}, {"measurement": "Cellular Infiltrate MN", "setting": "[2]; 5 mg/kg", "result": "4.0 ± 0.8", "unit": "Total × 10^-6"}, {"measurement": "Cellular Infiltrate PMN", "setting": "[2]; 5 mg/kg", "result": "2.8 ± 0.7", "unit": "Total × 10^-6"}, {"measurement": "Exudate Volume", "setting": "[2]; 5 mg/kg", "result": "2.0 ± 0.5", "unit": "mL"}, {"measurement": "Cell infiltration into carrageenan air pouch, result in words", "setting": "[2]", "result": "reduction in the PMN count and the PMN:mononuclear cell ratio"}, {"measurement": "Inhibition of eicosanoid formation / LTB4, result in words", "setting": "[3]; indomethacin: concentrations up to 10^-4 M", "result": "inactive"}, {"measurement": "% Inhibition (paw volume)", "setting": "[4]; [6]", "result": 0, "unit": "%"}, {"measurement": "Change in Paw Volume", "setting": "[4]; [6]", "result": "0.29 ± 0.06", "unit": "mL"}, {"measurement": "% Change (PMN)", "setting": "[5]; 10 mg/kg, p.o., Table 3", "result": -12, "unit": "%"}, {"measurement": "PMN (Mean ± S.D.)", "setting": "[5]; 10 mg/kg, p.o., Table 3", "result": "8.20 ± 2.65 × 10^-5 /ml"}, {"measurement": "PMN infiltration, result in words", "setting": "[5]", "result": "did not impair inflammatory cell infiltration"}]}
